Test results taken from article PMC4977052, “On the Utility of ToxCast™ and ToxPi as Methods for Identifying New Obesogens” (Environmental Health Perspectives, 2016).
Read-outs that look alike come from different tables or passages of the source.

Experiments:
PPARγ [1] = conditions: cited from earlier work
PPARγ [2] = conditions: ToxCast 2014 release, ref Filer et al. 2014, cited from earlier work
Human PPARγ = conditions: cited from earlier work
GAL4-mPPARγ = target: T1, GAL4-mPPARγ (Mus musculus, UniProt P37238); assay: GAL4-mPPARγ activation, transient transfection luciferase reporter in COS7 cells; format: cell-based
T1 construct: expressed in transfected cells; host or cells: COS7
T1 sequence (P37238 with tags, fused parts or gaps limits assumed): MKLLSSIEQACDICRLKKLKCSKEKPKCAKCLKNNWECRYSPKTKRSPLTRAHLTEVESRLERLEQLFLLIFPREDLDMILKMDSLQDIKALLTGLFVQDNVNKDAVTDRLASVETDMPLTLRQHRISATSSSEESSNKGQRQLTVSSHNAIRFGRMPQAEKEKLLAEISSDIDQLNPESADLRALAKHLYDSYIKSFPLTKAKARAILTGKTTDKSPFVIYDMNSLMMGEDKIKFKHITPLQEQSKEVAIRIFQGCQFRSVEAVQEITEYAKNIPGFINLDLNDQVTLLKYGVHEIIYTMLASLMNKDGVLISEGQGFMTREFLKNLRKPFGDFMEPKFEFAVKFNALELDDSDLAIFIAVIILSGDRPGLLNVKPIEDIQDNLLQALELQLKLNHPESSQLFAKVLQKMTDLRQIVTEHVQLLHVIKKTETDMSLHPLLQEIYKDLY
Description: pCMX-Gal4, pCMX-Gal4-mPPARγ, and pCMX-Gal4-hRXRα were previously described ([Grün et al. 2006]). Transient transfections were performed in COS7 cells as described ([Chamorro-García et al. 2012]). Briefly, COS7 cells were seeded at 15,000 cells per well in 96-well tissue culture plates in 10% calf bovine serum. The following day, cells were transfected in Opti-MEM at ~ 90% confluency. One microgram of CMX-GAL4 effector plasmid was co-transfected with 5 μg tk-(MH100)4-luciferase reporter and 5 μg of CMX-β-galactosidase transfection control plasmids in Opti-MEM® using Lipofectamine® 2000 reagent (Invitrogen™ Life Technologies, Carlsbad, CA, USA), following the manufacturer’s recommended protocol. All chemicals were solvated in dimethyl sulfoxide (DMSO). After overnight incubation, the medium was replaced with Dulbecco’s Modified Eagle Medium (DMEM; HyClone, Logan, UT, USA), 10% resin charcoal stripped fetal bovine serum (FBS) plus ligands at concentrations indicated in the figure legends for an additional 24 hr. DMSO concentration was maintained at 0.05% across all chemical treatments. Cells were lysed and assayed for luciferase and β-galactosidase activity as previously described ([Forman et al. 1995]). All transfections were performed in triplicate and reproduced in multiple experiments. Data are reported as fold induction or reduction over vehicle ([…]) controls ± SEM (standard error of the mean) using standard propagation of error ([Bevington and Robinson 2003]). […] The EC50, EC10, IC50, and IC10 values from NCGC and ToxCast™ are reported from gain AC50 and AC10 values in the ToxCast™ 2014 release ([Filer et al. 2014]).
Figure 1 ToxCast™ Chemical Activity on PPARγ. The ability of a graded dose series of ToxCast™ chemicals to (A) activate or (B) antagonize GAL4-mPPARγ was tested in transiently transfected COS7 cells. (A, B) Data points are averages of triplicate transfections (three biological replicates). […] Data are depicted as (A) fold induction or (B) reduction over vehicle (0.05% DMSO) controls ± SEM. (A) ToxCast™ chemicals were tested in 3-fold serial dilutions from 100 μM through 0.137 μM, with the final data point being 0.05% DMSO. Rosiglitazone serves as a positive control activator. (B) ToxCast™ chemicals were tested in 3-fold serial dilutions from 100 μM, in competition with 50 nM rosiglitazone (Rosi). […] (C) EC50, EC10, IC50, and IC10 values calculated from A and B are reported and compared to commercial assays (see Figure S1). Note: ATG, Attagene GAL-PPARγ activation assay; NCGC, GeneBLAzer® agonist (EC values) or antagonist (IC values) assays. Triphenyltin was previously published ([Kanayama et al. 2005]).
Figure 4 ToxPi Chemical Activity on PPARγ and RXRα. The ability of a graded dose series of ToxPi chemicals to activate (A) GAL4-mPPARγ or (B) GAL4-hRXRα was tested in transiently transfected COS7 cells. (A, B) Data points are averages of triplicate transfections (three biological replicates). […] ToxPi chemicals were tested in 3-fold serial dilutions from 100 μM through 0.137 μM, with the final data point being 0.05% DMSO. Data are depicted as fold induction over vehicle (0.05% DMSO) controls ± SEM. (A) Rosiglitazone serves as a positive control activator for GAL4-mPPARγ. (B) LG100268 (2-[1-(3,5,5,8,8-Pentamethyl-5,6,7,8-tetrahydro-2-naphthyl)cyclopropyl]pyridine-5-carboxylic acid) serves as a positive control activator for GAL4-hRXRα. (C) EC50 and EC10 values calculated from A and B are reported and compared to other assays (see Figure S1). ATG, Attagene GAL-PPARγ or GAL-RXRα activation assay; NCGC, GeneBLAzer® GAL-PPARγ or GAL-RXRα activation assays. Triphenyltin was previously published ([Kanayama et al. 2005]).

3T3-L1 preadipocytes = assay: 3T3-L1 adipogenesis assay (lipid accumulation, adipogenic gene expression); format: cell-based; conditions: 0.02-20 μM, 5 days after MDI induction
Description: 3T3-L1 cells (ATCC) were maintained in high-glucose DMEM supplemented with 10% fetal bovine serum, 2 mM L-glutamine, 50 IU/mL penicillin, and 50 μg/mL streptomycin. A total of 2 × 10^4 cells per well were seeded in 12-well plates. After 48 hr, cells were exposed to the adipogenic cocktail MDI (500 μM isobutylmethylxanthine, 0.25 nM dexamethasone and 5 μg/mL insulin), 8 μg/mL biotin and 8 μg/mL pantothenate for 2 days. Induction media was removed and cells were exposed to test chemicals during 5 days, replacing the media every 2 days. Rosiglitazone (ROSI) and tributyltin (TBT) were used as positive controls at 100 nM and 50 nM final concentrations, respectively. All ToxCast™ chemicals were tested at 0.02, 0.2, 2, and 20 μM, and DMSO concentration was maintained at 0.1% across all treatments. If the chemical was toxic at 20 μM, we repeated the experiment at 10 μM.
Cells were either fixed in 3.7% formaldehyde in phosphate-buffered saline (PBS) for 30 min at room temperature (RT) for lipid quantitation, or homogenized in TriPure (Roche, Mannheim, Germany) for gene expression analysis. For lipid quantitation, fixed cells were washed twice with PBS and maintained in PBS overnight at 4°C to release residual phenol red. Background of cells were measured prior to staining. Cells were stained with 1 μg/mL Nile red (CAS No. 7385-67-3) (to detect lipid accumulation) and 1 μg/mL Hoechst 33342 (ThermoFisher Scientific) (to detect nuclei as a surrogate for cell number) in PBS for 15 min in the dark at RT and washed twice with PBS. […] Background values of Hoechst and Nile red were subtracted from the RFUs after staining and the ratio RFUNile Red:RFUHoechst was calculated. Data are represented as mean ± SEM. Total RNA was isolated using TriPure (Roche) as recommended by the manufacturer. Reverse transcription and quantitative real-time RT-PCR (QPCR) were performed using Transcriptor RT and SYBR® Green Master Mix (Roche). cDNA was quantitated in a LightCycler® 480 System (Roche Diagnostics, Basel, Switzerland) using primer sets listed in Table S4. Each primer set amplified a single band as determined by gel electrophoresis and melting curve analysis. QPCR data were analyzed using the 2^ΔΔCt method ([Livak and Schmittgen 2001]) relative to ribosomal protein 36b4, normalizing to 0.1% DMSO vehicle. Error bars represent the SEM from four to six biological replicates calculated using standard propagation of error ([Bevington and Robinson 2003]).

[3] = ToxCast 2014 release, ref Filer et al. 2014, read-out: Attagene AC50 (panel B, with Z-Score Correction ranking)
[4] = read-out: Tox21/NCGC AC50 (panel B)
[5] = ToxCast 2014 release, ref Filer et al. 2014, read-out: Attagene AC50 (panel A, w/o Z-Score Correction ranking)
[6] = direct binding, ToxCast 2014 release, ref Filer et al. 2014, read-out: NovaScreen AC50 (panel A)
[7] = direct binding, ToxCast 2014 release, ref Filer et al. 2014, read-out: NovaScreen AC50 (panel B)
[8] = read-out: Tox21/NCGC AC50 (panel A)
[9] = Cos-7 transient transfection, PPARγ or RXRα activation assays (Table 2)

Row | SMILES | AC50 (PPARγ [1]; [3]) | AC50 (PPARγ [1]; [5]) | AC50 (Human PPARγ; [6]) | AC50 (Human PPARγ; [7]) | AC50 (PPARγ [2]; [8]) | further results
1 | O=C(O)CCCOc1ccc(Cl)cc1Cl [2,4-DB] | 33.4 µM | – | – | – | – | AC50 (PPARγ [2]; [4]): 16.7 µM
2 | Oc1ccccc1-c1ccccc1 [2-Phenylphenol] | 0.1 µM | 0.1 µM | 1.1 µM | 1.1 µM | – | –
3 | C/C(=N\C#N)N(C)Cc1ccc(Cl)nc1 [Acetamiprid] | – | – | – | – | – | Activation COS7 (result in words), ToxPi chemicals (GAL4-mPPARγ): Inactive; Adipogenesis 3T3-L1 (result in words) (3T3-L1 preadipocytes): Positive; Adipogenesis 3T3-L1 (result in words) (3T3-L1 preadipocytes; listed as acetamiprid): promoted adipogenesis
4 | O=C(O)c1cc(Oc2ccc(C(F)(F)F)cc2Cl)ccc1[N+](=O)[O-] [Acifluorfen] | 37.1 µM | – | – | 13.5 µM | – | –
5 | CCNc1nc(NC(C)C)nc(SC)n1 [Ametryn] | – | 15.1 µM | 31.8 µM | – | 10.2 µM | –
6 | COC(=O)NS(=O)(=O)c1ccc(N)cc1 [Asulam] | – | – | – | – | – | Activation COS7 (result in words), ToxPi chemicals (GAL4-mPPARγ; [9]): Inactive; Adipogenesis 3T3-L1 (result in words) (3T3-L1 preadipocytes): Negative
7 | CCOc1nc(F)cc2nc(S(=O)(=O)Nc3c(Cl)cccc3Cl)nn12 [Diclosulam] | 26.3 µM | – | – | – | – | AC50 (PPARγ [2]; [4]): 2.9 µM
8 | CCOP(=S)(OCC)SCCSCC [Disulfoton] | 81.8 µM | – | – | 1.6 µM | – | –
9 | CCCSP(=O)(OCC)SCCC [Ethoprop] | – | – | – | – | – | AC50 (PPARγ [1]; read-out: Attagene AC50 (panel B, with Z-Score Correction ranking)): 114 µM; AC50 (Human PPARγ; read-out: NovaScreen AC50 (panel B)): 3.9 µM
10 | CCOP(=O)(NC(C)C)Oc1ccc(SC)c(C)c1 (stereo not shown) [Fenamiphos] | 35.1 µM | 35.1 µM | 21.2 µM | 21.2 µM | 14.7 µM | AC50 (PPARγ [2]; [4]): 14.7 µM
11 | N#Cc1nn(-c2c(Cl)cc(C(F)(F)F)cc2Cl)c(N)c1[S+]([O-])C(F)(F)F (stereo not shown) [Fipronil] | – | 39.3 µM | – | – | – | –
12 | CCCCOC(=O)C(C)Oc1ccc(Oc2ccc(C(F)(F)F)cn2)cc1 (stereo not shown) [Fluazifop-butyl] | 2.8 µM | – | – | 0.7 µM | – | –
13 | Cc1ccn2nc(S(=O)(=O)Nc3c(F)cccc3F)nc2n1 [Flumetsulam] | – | – | – | – | – | Activation COS7 (result in words), ToxPi chemicals (GAL4-mPPARγ; [9]): Inactive; Adipogenesis 3T3-L1 (result in words) (3T3-L1 preadipocytes): Negative
14 | CC(C)Oc1cccc(NC(=O)c2ccccc2C(F)(F)F)c1 [Flutolanil] | – | 8.5 µM | 10.3 µM | – | 34.1 µM | –
15 | CCCCC(O)(Cn1cncn1)c1ccc(Cl)cc1Cl (stereo not shown) [Hexaconazole] | – | 1.2 µM | 0.3 µM | – | 0.1 µM | –
16 | CC(C)NC(=O)N1CC(=O)N(c2cc(Cl)cc(Cl)c2)C1=O [Iprodione] | 20.9 µM | 20.9 µM | 2.4 µM | 2.4 µM | 45.5 µM | AC50 (PPARγ [2]; [4]): 45.5 µM
17 | CS(=O)(=O)c1cc(C(F)(F)F)ccc1C(=O)c1cnoc1C1CC1 [Isoxaflutole] | 10.4 µM | – | – | – | – | AC50 (PPARγ [2]; [4]): 26.4 µM
18 | CCCCOC(=O)c1ccccc1C(=O)O [MBP] | 18.2 µM | – | – | 0.1 µM | – | –
19 | Cc1cc(Cl)ccc1OCC(=O)O [MCPA] | 33.8 µM | 33.8 µM | 0.1 µM | 0.1 µM | 253 µM | AC50 (PPARγ [2]; [4]): 253 µM
21 | O=c1ccc(=O)[nH][nH]1 [Maleic hydrazide] | – | – | – | – | – | Activation COS7 (result in words), ToxPi chemicals (GAL4-mPPARγ; [9]): Inactive; Adipogenesis 3T3-L1 (result in words) (3T3-L1 preadipocytes): Negative
22 | COc1nn(CSP(=S)(OC)OC)c(=O)s1 [Methidathion] | 30.6 µM | 30.6 µM | 0.1 µM | 0.1 µM | – | –
23 | CCSC(=O)N1CCCCCC1 [Molinate] | 41.3 µM | – | – | 0.1 µM | – | –
24 | O=C(O)c1c(Cl)ccc2cc(Cl)cnc12 [Quinclorac] | 0.03 µM | – | – | 0.0002 µM | – | –
25 | C=CCC1=C(C)[C@@H](OC(=O)[C@@H]2[C@@H](C=C(C)C)C2(C)C)CC1=O [S-Bioallethrin] | – | – | – | – | – | Activation COS7 (result in words), ToxCast PPARγ list (GAL4-mPPARγ; Cos-7 transient transfection, PPARγ activation or antagonism assays (Table 1, Table S6)): Inactive; AC50 (PPARγ [1]; PPARγ, NA = not active, ref Filer et al. 2014, read-out: ATG Agonist AC50, 2014 Release): 9.2 µM; AC50 (PPARγ [1]; PPARγ, NA = not active, ref Knudsen et al. 2011, read-out: ATG Agonist AC50, 2011 Release): 9.2 µM
26 | CCNc1nc(Cl)nc(NCC)n1 [Simazine] | 116 µM | – | – | 1.5 µM | – | –
27 | CC(C)=CC1C(C(=O)OCN2C(=O)C3=C(CCCC3)C2=O)C1(C)C (stereo not shown) [Tetramethrin] | – | 0.02 µM | 0.3 µM | – | 21.6 µM | –
28 | COP(=O)(OC)C(O)C(Cl)(Cl)Cl (stereo not shown) [Trichlorfon] | – | 58.4 µM | – | – | 0.05 µM | –
29 | O=C(O)COc1nc(Cl)c(Cl)cc1Cl [Triclopyr] | 54.7 µM | 54.7 µM | 2.1 µM | 2.1 µM | 41.5 µM | AC50 (PPARγ [2]; [4]): 41.5 µM
30 | Oc1cc(Cl)ccc1Oc1ccc(Cl)cc1Cl [Triclosan] | – | 8.6 µM | 7.1 µM | – | 25.8 µM | Activation of GAL4-PPARγ (text) (GAL4-mPPARγ; COS7, 100 μM through 0.137 μM): inactive
